Assay results: US10543213B2, “Treatment of relapsed and/or refractory solid tumors and non-hodgkin's lymphomas” (Celgene Quanticel Research, Inc., priority 2016, dated 2020)
pIC50: −log10 of the molar value. Where two headings read alike, the source gives them in different places. One block for each compound: values may come before it.

Columns and labels:
human LSD-1 = human LSD-1 (Homo sapiens (Human), UniProt O60341); test: In vitro enzyme inhibition assay LSD-1 (TR-FRET); format: biochemical; conditions: H3K4me1-biotin labeled peptide
Description: This assay determines the ability of a test compound to inhibit LSD-1 demethylase activity.
The enzymatic assay of LSD-1 activity is based on Time Resolved-Fluorescence Resonance Energy Transfer (TR-FRET) detection.

CYP2C9 = CYP2C9 (Homo sapiens (Human), UniProt P11712); test: CYP inhibition in pooled human liver microsomes, CYP2C9; format: in vitro ADME; conditions: up to 50 μM
[1] = test system: recombinant human CYP enzymes; test: CYP reaction phenotyping with recombinant human CYP enzymes; format: in vitro ADME
Description: The role of non-CYP enzymes in the metabolism of Compound A is yet to be ascertained.

[2] = Metabolism in cryopreserved primary hepatocytes; format: in vitro ADME; conditions: hepatocytes of mouse, rat, dog, monkey, human
MKL-1 hMCC xenograft = format: in vivo; conditions: 5 mg/kg 5 on/2 off
[3] = Exploratory toxicity study in mice; format: in vivo, CD-1 mice; conditions: for reduction in neutrophil counts vs concurrent controls: 60 mg/kg/dose QOD
Description: Additional animals were included for TK evaluation.

NCI-H1417 SCLC xenograft = test: Efficacy in NCI-H1417 SCLC xenograft model; format: in vivo, female athymic nude mice
[4] = Hemodynamic and ECG parameters in anesthetized guinea pigs; format: in vivo, male Dunkin Hartley guinea pigs
Description: Animals were monitored throughout the experiment.

[5] = molecular target: MDR1(human P-gp)-MDCK cells (Homo sapiens (Human), UniProt P08183); test: Permeability in MDR1-MDCK cells; format: in vitro ADME
P-gp (human MDR1) = P-gp (human MDR1) (Homo sapiens (Human), UniProt P08183); test: Permeability in MDR1-MDCK cells; format: in vitro ADME; conditions: dog
LXFS 1129 SCLC PDX = test: Efficacy in LXFS 1129 SCLC PDX model; format: in vivo, female immunodeficient NMRI-Foxn1nu mice; conditions: 1.5 and 5 mg base/kg QD for 30 days
LU2514 SCLC PDX = format: in vivo
Description: Tumor growth inhibition analysis was performed on Day 28 post treatment, the last day of dosing.

[6] = dog, in vivo
[7] = 4-week toxicity study with 4-week recovery in mice; conditions: 25 mg base/kg/dose QOD×3 weekly, males
[8] = test system: Salmonella typhimurium TA98 and TA100 strains; test: Bacterial reverse mutation assay; format: cell-based; conditions: up to 500 μg/mL, presence and absence of S9
CYP2D6 = CYP2D6 (Homo sapiens (Human), UniProt P10635); test: CYP inhibition in pooled human liver microsomes, CYP2D6; format: in vitro ADME; conditions: up to 50 μM
[9] = Excretion in bile duct cannulated rats; format: in vivo; conditions: IV, 24-hour period post dosing
[10] = Pharmacokinetics across species (statements covering several species); format: in vivo, mice, rats, dogs, and monkeys; conditions: plasma; for half-life: intravenous; for bioavailability: po
Description: Disparate half-lives were noted between rodents and non-rodents with values ranging from either 2 to 4 hours in rodents or from 12 to 20 hours in non-rodents.

[11] = 4-week toxicity study (no recovery period) in dogs; conditions: Q2W administration, not determined
[12] = Pharmacokinetics following IV and oral administration, mice; format: in vivo, CD-1 mice; conditions: Mouse, Female, single oral dose 10 mg base/kg
LXFS 615 SCLC PDX = test: Efficacy in LXFS 615 SCLC PDX model; format: in vivo, female immunodeficient NMRI-Foxn1nu mice; conditions: 5 mg base/kg oral for 30 days
LXFS 573 SCLC PDX [13] = test: Efficacy in LXFS 573 SCLC PDX model; format: in vivo, female immunodeficient NMRI-Foxn1nu mice; conditions: 5, 7.5, 10 mg/kg oral
[14] = Pharmacokinetics following IV and oral administration, rats; format: in vivo, Sprague Dawley rats; conditions: IV dosing
[15] = 4-week oral gavage pivotal toxicity study with 4-week recovery in dogs; format: in vivo, Beagle dogs
MS-1 hMCC xenograft = format: in vivo; conditions: 5 mg/kg 5 on/2 off; Day 36 minus Day -3
[16] = Exploratory toxicity study in dogs; format: in vivo, Beagle dogs
LXFS 573 SCLC PDX [17] = test system: LXFS 573 SCLC PDX
[18] = after escalating IV doses up to 20 mg base/kg
[19] = CD-1, Sprague Dawley, mouse, rat, rodents
[20] = Etoposide at 24 mg/kg/day SC days 1-3 + Vehicle
[21] = etoposide monotherapy 24 mg/kg SC

Chain of P-gp (human MDR1) (P08183 whole entry): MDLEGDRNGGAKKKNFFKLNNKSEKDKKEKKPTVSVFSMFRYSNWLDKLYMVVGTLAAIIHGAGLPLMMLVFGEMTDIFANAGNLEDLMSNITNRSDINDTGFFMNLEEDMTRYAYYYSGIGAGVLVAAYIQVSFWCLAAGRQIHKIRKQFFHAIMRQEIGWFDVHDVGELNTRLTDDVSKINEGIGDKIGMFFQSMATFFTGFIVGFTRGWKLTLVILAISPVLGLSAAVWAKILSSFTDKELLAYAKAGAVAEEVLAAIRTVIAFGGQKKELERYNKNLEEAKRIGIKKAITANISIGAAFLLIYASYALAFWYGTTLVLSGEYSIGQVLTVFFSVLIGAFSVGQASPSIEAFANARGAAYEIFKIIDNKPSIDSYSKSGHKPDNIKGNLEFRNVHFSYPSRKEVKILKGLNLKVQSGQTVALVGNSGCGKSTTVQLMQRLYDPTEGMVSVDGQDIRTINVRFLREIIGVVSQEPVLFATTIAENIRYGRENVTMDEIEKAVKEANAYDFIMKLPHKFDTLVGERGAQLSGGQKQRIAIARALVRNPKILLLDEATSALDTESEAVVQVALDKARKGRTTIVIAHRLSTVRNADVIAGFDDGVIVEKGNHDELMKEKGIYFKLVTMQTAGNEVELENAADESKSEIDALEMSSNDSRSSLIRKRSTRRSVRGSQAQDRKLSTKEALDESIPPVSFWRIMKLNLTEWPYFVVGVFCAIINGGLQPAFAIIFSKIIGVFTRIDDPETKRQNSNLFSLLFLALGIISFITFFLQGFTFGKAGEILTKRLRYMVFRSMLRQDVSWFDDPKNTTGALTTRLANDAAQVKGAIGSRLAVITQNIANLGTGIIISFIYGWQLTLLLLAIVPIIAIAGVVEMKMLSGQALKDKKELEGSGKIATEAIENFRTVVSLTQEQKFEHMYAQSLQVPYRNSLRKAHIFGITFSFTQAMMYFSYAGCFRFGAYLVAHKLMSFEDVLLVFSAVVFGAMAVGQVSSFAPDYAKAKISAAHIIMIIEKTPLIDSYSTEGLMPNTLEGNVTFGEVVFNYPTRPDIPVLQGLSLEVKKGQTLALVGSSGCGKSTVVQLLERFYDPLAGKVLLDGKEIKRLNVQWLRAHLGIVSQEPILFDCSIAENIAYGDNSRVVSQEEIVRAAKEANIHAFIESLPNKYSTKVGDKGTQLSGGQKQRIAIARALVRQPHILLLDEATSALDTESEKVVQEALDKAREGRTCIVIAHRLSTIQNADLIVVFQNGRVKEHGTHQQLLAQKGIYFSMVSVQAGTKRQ
Chain of MDR1(human P-gp)-MDCK cells (P08183 whole entry): as above
Chain of CYP2D6 (P10635 whole entry): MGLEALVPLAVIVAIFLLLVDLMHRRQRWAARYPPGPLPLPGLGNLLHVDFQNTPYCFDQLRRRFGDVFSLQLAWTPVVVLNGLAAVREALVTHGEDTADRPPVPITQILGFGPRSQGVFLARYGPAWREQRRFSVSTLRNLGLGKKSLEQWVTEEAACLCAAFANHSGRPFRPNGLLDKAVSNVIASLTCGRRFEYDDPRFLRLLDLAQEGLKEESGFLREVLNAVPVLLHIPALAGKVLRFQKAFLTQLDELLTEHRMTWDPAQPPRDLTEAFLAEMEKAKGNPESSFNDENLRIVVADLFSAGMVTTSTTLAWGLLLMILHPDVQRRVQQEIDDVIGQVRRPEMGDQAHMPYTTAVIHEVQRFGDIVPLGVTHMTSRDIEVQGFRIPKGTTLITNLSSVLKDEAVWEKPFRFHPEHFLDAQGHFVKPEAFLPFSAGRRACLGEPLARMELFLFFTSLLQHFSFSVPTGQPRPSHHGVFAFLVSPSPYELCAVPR
Chain of CYP2C9 (P11712 whole entry): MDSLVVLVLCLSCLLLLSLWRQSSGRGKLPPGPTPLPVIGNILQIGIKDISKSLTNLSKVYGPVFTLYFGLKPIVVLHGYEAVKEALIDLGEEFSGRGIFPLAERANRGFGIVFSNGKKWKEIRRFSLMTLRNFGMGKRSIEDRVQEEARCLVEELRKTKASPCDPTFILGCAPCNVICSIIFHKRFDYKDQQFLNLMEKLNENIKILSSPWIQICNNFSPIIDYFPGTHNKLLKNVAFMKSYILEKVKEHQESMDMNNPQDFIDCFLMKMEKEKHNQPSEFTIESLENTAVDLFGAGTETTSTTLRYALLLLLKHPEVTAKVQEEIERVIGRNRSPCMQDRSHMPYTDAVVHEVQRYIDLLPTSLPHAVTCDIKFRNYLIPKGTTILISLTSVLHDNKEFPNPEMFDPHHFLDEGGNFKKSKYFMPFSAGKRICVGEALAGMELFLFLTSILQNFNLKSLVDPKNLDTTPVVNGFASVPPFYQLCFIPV

Structure (SMILES): Cn1c(N2CCC(N)CC2)nc(-c2ccc(C#N)c(F)c2)c(-c2ccc(C(=O)O)cc2)c1=O [Example 39, 4-[2-(4-aminopiperidyl)-6-(4-cyano-3-fluorophenyl)-3-methyl-4-oxo-3-hydropyrimidin-5-yl] benzoic acid]
pIC50 (human LSD-1): 6.00 to 7.00

Structure (SMILES): COc1ccc(-c2c(-c3ccc(C#N)c(F)c3)nc(N3CCC(N)CC3)n(C)c2=O)cc1F [Compound A, 4-[2-(4-amino-piperidin-1-yl)-5-(3-fluoro-4-methoxy-phenyl)-1-methyl-6-oxo-1,6-dihydro-pyrimidin-4-yl]-2-fluoro-benzonitrile]
direct inhibitory effect (CYP2C9): little to no direct inhibitory effect
CYP enzyme responsible for oxidative metabolism [1]: CYP3A4 appears to be predominantly responsible
metabolic stability [2]: greater in rat and dog followed by human and monkeys while being least stable in mouse hepatocytes
Median Tumor Volumes Day 15 (MKL-1 hMCC xenograft): 880 mm^3
increase in platelets on Day 8 compared with the end of the first dosing period ([3]; 10 mg/kg/day 5 days on/2 days off): > 2 fold
reduction in neutrophil counts vs concurrent controls ([3]; females): 66%
reduction in neutrophil counts vs concurrent controls ([3]; males): 83%
greatest reduction in neutrophil counts vs concurrent controls and pre-study values ([3]; 5 days on/2 days off schedule): approximately 90%
circulating platelets ([3]; all dose levels, end of the study): reduced
accumulation upon repeat dosing ([3]; mice): no accumulation
mean body weight gain by the end of study (NCI-H1417 SCLC xenograft; 2.5 mg base/kg PO QDx65): 1%
mean body weight gain by the end of study (NCI-H1417 SCLC xenograft; 5 mg base/kg PO QDx65): 7.5%
tumors from treated animals regressed in net volume (NCI-H1417 SCLC xenograft; 2.5 and 5 mg base/kg groups together, end of study): 14 out of 15
tolerability (NCI-H1417 SCLC xenograft; 2.5 or 5 mg base/kg PO QDx65): well tolerated
maximum increase of QTcB interval vs time-matched vehicle ([4]; 10 mg base/kg IV): approximately 9%
maximum increase of QTcB interval vs time-matched vehicle ([4]; 15 mg base/kg IV): ~13%
maximum increase of QTcB interval vs time-matched vehicle ([4]; 20 mg base/kg IV): ~16%
decrease in HR, maximum suppression as compared with vehicle ([4]; 20 mg base/kg IV, 9 minutes into the 10-minute infusion): 19%
effect in MAP or its components ([4]; 5-20 mg base/kg IV vs time-matched vehicle): No notable effect
NOAEL for hemodynamic and ECG endpoints ([4]; IV administration): 10 mg base/kg
QTcB interval increase at the end of the monitoring period [4, 18]: 10%
heart rate decrease at the end of the monitoring period [4, 18]: 18%
P-gp substrate status [5]: P-gp substrate
Papp (P-gp (human MDR1); MDCK-MDR1, A→B direction): 0.5 ×10⁻⁶ cm/s
Papp (P-gp (human MDR1); MDCK-MDR1, B→A direction): 16.5 ×10⁻⁶ cm/s
mean body weight losses (LXFS 1129 SCLC PDX): < 6%
tolerability (LU2514 SCLC PDX; both LU2514 studies): well tolerated
mean body weight losses (LU2514 SCLC PDX; mouse, in vivo): < 10%
accumulation after multiple doses [6]: No accumulation
AUC0-96 ([6]; female, Beagle, po, 0.25 mg/kg): 343 ng·h/mL
Cmax ([6]; female, Beagle, po, 0.25 mg/kg): 12.1 ng/mL
AUC0-96 ([6]; female, Beagle, po, 0.5 mg/kg): 729 ng·h/mL
mean steady state AUC0-24 [7]: 17,800 ng·hr/mL
mutagenicity [8]: negative
direct inhibitory effect (CYP2D6): little to no direct inhibitory effect
dose excreted intact (urine and bile) [9]: 26.3 % of the dose
dose excreted intact in urine [9]: 8.5 % of dose
half-life ([10]; Beagle, Cynomolgus, dog, monkey, non-rodents): 12 to 20 h
bioavailability ([10]; Beagle, dog, cynomolgus monkey, dogs and monkeys): 82 to 100%
Tmax ([10]; CD-1, Sprague Dawley, Beagle, mouse, rat, dog, cynomolgus monkey, oral dosing, mice, rats, dogs, and monkeys, read-out: median time to peak plasma concentration (tmax)): 0.5 to 6 h
half-life [10, 19]: 2 to 4 h
bioavailability [10, 19]: 28 to 74%
NOAEL [11]: < 0.5 mg base/kg/dose
AUClast [12]: 2007 ng·h/mL
mean body weight losses (LXFS 615 SCLC PDX): < 1%
mean body weight losses (LXFS 573 SCLC PDX [13]): ≤ 3%
systemic clearance [14]: greater than liver blood flow
cause of moribund condition ([15]; 0.375 to 1.5 mg base/kg weekly): gastric mucosal ulceration and/or acute inflammation
accumulation after multiple dosing ([15]; dog, in vivo): No accumulation
platelet count ([15]; dog, in vivo): mildly to markedly decreased
AUC0-168 ([15]; female, Beagle, dog, in vivo, po): 435 ng·h/mL
Cmax ([15]; male, Beagle, dog, in vivo, po): 17.2 ng/mL
HNSTD and NOAEL for the QW or BIW dose schedule ([15]; not determined): < 0.375 mg base/kg/dose
moribund euthanasia ([15]; weekly oral, 1 male 0.375 QW, 2 males and 1 female 0.75, 3 males and 4 females 1.5 mg base/kg/dose, Days 13 to 23): 11 animals
Median Tumor Volumes Diff (MS-1 hMCC xenograft): 80 mm^3
treatment-related effects ([16]; 0.25 mg/kg/dose QOD): generally no Compound A-related effects
accumulation after repeat dosing ([16]; QOD schedule): no accumulation

pIC50 (human LSD-1): 6.00 to 7.00
Structure (SMILES): Cn1c(N2CCC(N)CC2)nc(-c2ccncc2)c(-c2ccc3c(ccn3C)c2)c1=O [Example 116, 2-(4-amino-piperidin-1-yl)-3-methyl-5-(1-methyl-1H-indol-5-yl)-6-pyridin-4-yl-3H-pyrimidin-4-one]

Structure (SMILES): COc1cc([C@@H]2c3cc4c(cc3[C@@H](O[C@@H]3O[C@@H]5CO[C@@H](C)O[C@H]5[C@H](O)[C@H]3O)[C@H]3COC(=O)[C@H]23)OCO4)cc(OC)c1O [Etoposide, etoposide, reference compound]
% TGD (LXFS 573 SCLC PDX [17]; [20]): 50%
T-C (LXFS 573 SCLC PDX [17]; [20]): 21 days
median TTE (LXFS 573 SCLC PDX [17]; [20]): 63 days
SS number of study survivors (LXFS 573 SCLC PDX [17]; Etoposide at 24 mg/kg/day SC days 1-3 + Vehicle, Day 133, N=8): 0 (na)
% TGD (LXFS 573 SCLC PDX [17]; [21]): 50%
TGD (LXFS 573 SCLC PDX [17]; [21]): 21 days
median TTE (LXFS 573 SCLC PDX [17]; [21]): 63 days

Structure (SMILES): N#Cc1ccc(-c2cc(=O)n(CC3CC3)c(N3CCC(N)CC3)n2)cc1F [Example 109, 4-[2-(4-amino-piperidin-1-yl)-1-cyclopropylmethyl-6-oxo-1,6-dihydro-pyrimidin-4-yl]-2-fluoro-benzonitrile]
pIC50 (human LSD-1): 6.00 to 7.00

Structure (SMILES): CCn1c(N2CCC(N)CC2)nc(-c2ccc(C#N)c(F)c2)cc1=O [Example 13, 4-[2-(4-amino-piperidin-1-yl)-1-ethyl-6-oxo-1,6-dihydro-pyrimidin-4-yl]-2-fluoro-benzonitrile]
pIC50 (human LSD-1): 6.00 to 7.00

Structure (SMILES): N#Cc1ccc(-c2cc(=O)n(CCCO)c(N3CCC(N)CC3)n2)cc1F [Example 17, 4-[2-(4-amino-piperidin-1-yl)-1-(3-hydroxy-propyl)-6-oxo-1,6-dihydro-pyrimidin-4-yl]-2-fluoro-benzonitrile]
pIC50 (human LSD-1): 6.00 to 7.00
